Results on eight compounds are retold here after ChEMBL document CHEMBL1201862, “PubChem BioAssay data set” (2004).

Among the test systems are NCI-H226; SR; Malme-3M; SK-OV-3; DU-145; CCRF-CEM; 786-0; UO-31; MCF7; COLO 205; IGROV-1; SNB-19; HT-29; NCI/ADR-RES; LOX IMVI; MDA-MB-231; SF-268.
Holding throughout (assay): NCI-60 cell line screen, 48 h

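Five concentrations, 48 hours, 96-well plates. GI50 marks 50% less growth.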 Calls of active or inactive are those of the source. Cut-off read from the data, not from the text of the source: active = GI50 up to about 1.1 µM and inactive = higher.

For `CCCCCCCCCCCCCCCCCCOCC(O)COP(=O)(O)OCC1OC(n2cc(F)c(=O)[nH]c2=O)CC1O` (stereo unspecified), the GI50 in the assay on NCI-H226 is > 35.6 µM (inactive); in the assay with SR it was 0.533 µM (active); in the assay on Malme-3M, 14.4 µM (inactive); in the assay on SK-OV-3, 12.8 µM (inactive); with DU-145, 1.15 µM (inactive); in the assay with CCRF-CEM it was 0.318 µM (active). Besides, the GI50 in the assay with 786-0 was 1.22 µM (inactive); in the assay on UO-31, 1.16 µM (inactive); with MCF7, 0.492 µM (active); with COLO 205, 5.15 µM (inactive); in the assay on IGROV-1, 11.4 µM (inactive); in the assay with SNB-19, 10.3 µM (inactive). In addition, the GI50 in the assay with HT-29 is 10.5 µM (inactive); in the assay with NCI/ADR-RES it was 2.05 µM (inactive); in the assay on LOX IMVI, 0.658 µM (active); in the assay on MDA-MB-231, 19.1 µM (inactive); with SF-268, 0.236 µM (active).

For the compound `CNC1C(O)C(OC2C(N)CC(N)C(OC3OC(C(C)O)C(O)C(O)C3N)C2O)OCC1(C)O` (stereo unspecified), the GI50 in the assay with NCI-H226 is > 100 µM (inactive); in the assay with SR it was > 100 µM (inactive); in the assay with Malme-3M, > 10 µM (inactive); in the assay on SK-OV-3, > 100 µM (inactive); in the assay on DU-145, > 100 µM (inactive); in the assay on CCRF-CEM, > 100 µM (inactive). For the same compound, the GI50 with 786-0, in the assay with UO-31, with MCF7, in the assay with COLO 205, in the assay on IGROV-1 and with SNB-19 was > 100 µM (inactive) throughout. Moreover, the GI50 with HT-29, in the assay on NCI/ADR-RES, with LOX IMVI, in the assay on MDA-MB-231 and with SF-268 was > 100 µM (inactive) in each case.

Turning to `N#CC(C#N)=C/C=C(\Sc1c(Cl)c(Cl)nc(Cl)c1Cl)c1ccc(Cl)cc1`, the GI50 in the assay with NCI-H226 was 23 µM (inactive); in the assay on SR it was 3.75 µM (inactive); with Malme-3M it was 23 µM (inactive); with SK-OV-3 it was 24.4 µM (inactive); with DU-145 it was 21.1 µM (inactive); in the assay on CCRF-CEM it was 4.74 µM (inactive). Further, the GI50 in the assay on 786-0 is 4.45 µM (inactive); in the assay on UO-31 it was 29.8 µM (inactive); in the assay on MCF7, 31.1 µM (inactive); in the assay on COLO 205, 24.4 µM (inactive); with IGROV-1, 18.7 µM (inactive); with SNB-19, 20.7 µM (inactive). Further, the GI50 was 18 µM (inactive) in the assay with HT-29; 12.8 µM (inactive) in the assay with NCI/ADR-RES; 5.56 µM (inactive) with LOX IMVI; 21.6 µM (inactive) in the assay on MDA-MB-231; 19.6 µM (inactive) in the assay with SF-268.

Turning to `[N-]=[N+]=CC(=O)C1CCCN1C(=O)c1ccccc1` (stereo unspecified), the GI50 in the assay with NCI-H226, in the assay on SR, with Malme-3M, with SK-OV-3, in the assay with DU-145 and in the assay on CCRF-CEM was > 10 µM (inactive) in each case. Besides, the GI50 with 786-0, in the assay with UO-31, with MCF7, in the assay with COLO 205, in the assay on IGROV-1 and in the assay with SNB-19 was > 10 µM (inactive) in each case. Also, the GI50 in the assay on HT-29, with NCI/ADR-RES, with LOX IMVI, in the assay with MDA-MB-231 and in the assay with SF-268 was > 10 µM (inactive) in each case.

For the compound `C=C(Cl)[C@@](Cl)(CBr)CC[C@@H](Br)C(C)(C)Cl`, the GI50 in the assay with NCI-H226 was 26.2 µM (inactive); with SR, 15.4 µM (inactive); with Malme-3M, 21.7 µM (inactive); in the assay with SK-OV-3, 9.16 µM (inactive); with DU-145, 0.664 µM (active); in the assay on CCRF-CEM, 15.8 µM (inactive). The GI50 with 786-0 is 0.0603 µM (active); in the assay with UO-31, 0.834 µM (active); in the assay on MCF7, 0.249 µM (active); with COLO 205, 0.5 µM (active); in the assay with IGROV-1, 11.7 µM (inactive); with SNB-19 it was 0.499 µM (active). For the same compound, the GI50 is 0.253 µM (active) with HT-29; 0.522 µM (active) in the assay on NCI/ADR-RES; 13.2 µM (inactive) in the assay with LOX IMVI; 0.211 µM (active) in the assay on MDA-MB-231; 0.251 µM (active) in the assay on SF-268.

As for `CCOC(=O)/C=C/[C@@H](CC)O[Si](C(C)C)(C(C)C)C(C)C`, the GI50 in the assay on NCI-H226 is > 100 µM (inactive); in the assay with SR it was 74.6 µM (inactive); in the assay on Malme-3M, > 100 µM (inactive); in the assay on SK-OV-3, > 100 µM (inactive); in the assay with DU-145, > 100 µM (inactive); in the assay on CCRF-CEM, 42.2 µM (inactive). Also, the GI50 was > 100 µM (inactive) with 786-0; > 100 µM (inactive) in the assay on UO-31; 90.2 µM (inactive) in the assay with MCF7; > 100 µM (inactive) with COLO 205; > 100 µM (inactive) with IGROV-1; > 100 µM (inactive) in the assay with SNB-19. The GI50 in the assay on HT-29, with NCI/ADR-RES, in the assay on LOX IMVI, with MDA-MB-231 and in the assay with SF-268 was > 100 µM (inactive) each time.

With `CC1(C)CC[C@]2(C(=O)O)CC[C@]3(C)C(=CC[C@@H]4[C@@]5(C)CC[C@H](OC6OC(CO)C(O)C(O)C6OC6OC(CO)C(O)C(O)C6O)C(C)(C)[C@@H]5CC[C@]43C)[C@@H]2C1` (stereo partly specified), the GI50 was 17.6 µM (inactive) with NCI-H226; 22.5 µM (inactive) with SR; 15.5 µM (inactive) with Malme-3M; 17.8 µM (inactive) in the assay with SK-OV-3; 17.2 µM (inactive) with DU-145; 21.2 µM (inactive) in the assay with CCRF-CEM. The GI50 is 16.6 µM (inactive) in the assay with 786-0; 20.6 µM (inactive) in the assay with UO-31; 19.6 µM (inactive) in the assay on MCF7; 15.4 µM (inactive) in the assay with COLO 205; 18.9 µM (inactive) in the assay on IGROV-1; 18.3 µM (inactive) in the assay with SNB-19. Further, the GI50 in the assay with HT-29 is 15.8 µM (inactive); in the assay on NCI/ADR-RES, 21.2 µM (inactive); in the assay with LOX IMVI it was 28.2 µM (inactive); with MDA-MB-231, 26.4 µM (inactive); with SF-268 it was 17.2 µM (inactive).

As for `O=C1CNc2cc(N3CCN(c4cccc(C(F)(F)F)c4)CC3)ccc2N1`, the GI50 was 19.6 µM (inactive) in the assay with NCI-H226; 46.3 µM (inactive) in the assay on SR; 14.2 µM (inactive) in the assay on Malme-3M; > 100 µM (inactive) with SK-OV-3; > 100 µM (inactive) in the assay with DU-145; 38.4 µM (inactive) in the assay with CCRF-CEM. Moreover, the GI50 in the assay with 786-0 is > 100 µM (inactive); in the assay with UO-31, 24.7 µM (inactive); in the assay on MCF7, 43.1 µM (inactive); in the assay with COLO 205, 27.5 µM (inactive); with IGROV-1, 30.8 µM (inactive); in the assay on SNB-19, > 100 µM (inactive). The GI50 in the assay on HT-29 is 70.6 µM (inactive); with NCI/ADR-RES, 34.6 µM (inactive); with LOX IMVI it was 38.4 µM (inactive); in the assay with MDA-MB-231, > 100 µM (inactive); in the assay with SF-268 it was > 100 µM (inactive).
